In paper PMC3914891, “Pentacyclic Nitrofurans with In Vivo Efficacy and Activity against Nonreplicating Mycobacterium tuberculosis” (PLoS ONE, 2014):
≈ marks a conversion by molar mass, not a printed value. Like-named read-outs stand apart in the source and are kept apart here.

What was measured:
[1] = test system: M. tuberculosis strain H37Rv; test: Checkerboard synergy assay; type: cell-based, Mycobacterium tuberculosis; details: for MIC: Mycobacterium tuberculosis, H37RV, 168 h, read-out: MIC Alone
[2] = test system: M. tuberculosis; test: MIC determination, microbroth dilution, M. tuberculosis; type: cell-based, Mycobacterium tuberculosis; details: Mycobacterium tuberculosis
[3] = test system: Staphylococcus aureus (ATCC 29213); test: MIC, spectrum of activity: S.a.; type: cell-based; details: ATCC29213, read-out: Minimum Inhibitory Concentration, S.a
[4] = test system: Staphylococcus aureus (NRS70); test: MIC, spectrum of activity: MRSA; type: cell-based; details: read-out: Minimum Inhibitory Concentration, MRSA
[5] = test system: Bacillus subtilis (ATCC 23857); test: MIC, spectrum of activity: B.s.; type: cell-based; details: ATCC23857, read-out: Minimum Inhibitory Concentration, B.s.
[6] = test system: Streptococcus pyogenes (ATCC 700294); test: MIC, spectrum of activity: S.py; type: cell-based; details: ATCC700294, read-out: Minimum Inhibitory Concentration, S. Py.
[7] = test system: Streptococcus pneumoniae (R6); test: MIC, spectrum of activity: S.pn; type: cell-based; details: read-out: Minimum Inhibitory Concentration, S. Pn.
[8] = test system: Enterococcus faecalis (ATCC 33186); test: MIC, spectrum of activity: E.f.; type: cell-based; details: ATCC33186, read-out: Minimum Inhibitory Concentration, E.f.
[9] = test system: Bacillus anthracis sterne 34F2; test: microbe, parasite or virus in culture; type: cell-based; details: STERNE34F2, read-out: Minimum Inhibitory Concentration, B.a.
[10] = test system: Burkholderia cepacia (ATCC 25416); test: MIC, spectrum of activity: B.c.; type: cell-based; details: ATCC25416, read-out: Minimum Inhibitory Concentration, B.c.
[11] = test system: Stenotrophomonas maltophilia (ATCC 13637); test: MIC, spectrum of activity: S.m.; type: cell-based; details: ATCC13637, read-out: Minimum Inhibitory Concentration, S.m.
[12] = test system: Escherichia coli (ATCC 700926); test: MIC, spectrum of activity: E.c.; type: cell-based; details: ATCC700926, read-out: Minimum Inhibitory Concentration, E.c.
[13] = test system: E. coli K12 ∆tolC; type: cell-based; details: E. coli K12 ∆tolC (efflux pump deficient)
[14] = male, Sprague-Dawley, rat, in vivo
[15] = rats; IV 10 mg/kg and oral 100 mg/kg
[16] = in vivo; details: male, Sprague-Dawley, rat
[17] = physchem; details: pH 7.4, aqueous buffer
[18] = in vitro; details: mouse, microsomes
[19] = in vitro; details: mouse, plasma
[20] = In vitro cytotoxicity against Vero cells; details: African green monkey, Vero cells (kidney epithelial cells, ATCC CCL-81)
[21] = test system: Vero cells; test: In vitro cytotoxicity against Vero cells
[22] = test system: M. abscessus (ATCC 19977); test: MIC, non-tuberculosis mycobacteria: M. abscessus; type: cell-based; details: Mycobacteroides abscessus, ATCC19977, 72 h, read-out: Minimum Inhibitory Concentration, M. abscessus
[23] = test system: M. avium (ATCC 25291); test: MIC, non-tuberculosis mycobacteria: M. avium; type: cell-based; details: Mycobacterium avium, ATCC25291, 168 h; broth dilution, visual inspection, 7 days; read-out: Minimum Inhibitory Concentration, M. avium
[24] = test system: M. kansasii (ATCC 12478); test: MIC, non-tuberculosis mycobacteria: M. kansasii; type: cell-based; details: Mycobacterium kansasii, ATCC12478, 168 h; broth dilution, visual inspection, 7 days; read-out: Minimum Inhibitory Concentration, M. kansasii
[25] = test system: M. fortuitum (ATCC 6841); test: MIC, non-tuberculosis mycobacteria: M. fortuitum; type: cell-based; details: Mycolicibacterium fortuitum, ATCC6841, 72 h; broth dilution, visual inspection, 3 days; read-out: Minimum Inhibitory Concentration, M. fortuitum
[26] = test system: M. tuberculosis H37Rv; test: Minimum bactericidal concentration determination; type: cell-based, Mycobacterium tuberculosis

SMILES | FICI with 9a [1] | MIC in presence of 9a [1] | Type of Interaction [1] | MIC [1] | MIC ([2]; 168 h, read-out: M. tb. MIC) | MIC [3] | MIC [4] | MIC [5] | MIC [6] | MIC [7] | MIC [8] | MIC [9] | MIC [10] | MIC [11] | MIC [12] | Minimum Inhibitory Concentration, E.c. ΔtolC [13] | solubility [17] | half-life [18] | fraction unbound [19] | IC50 [20] | further results
CC[C@@H](CO)NCCN[C@@H](CC)CO [Ethambutol] | 0.75–1.00 | 0.8 µg/mL | Indifference (key: Synergy: synergy (FICI ≤0.5); Indifference: indifference (FICI >0.5–4.0); Antagonism: antagonism (FICI >4.0)) | 1.6 µg/mL | – | – | – | – | – | – | – | – | – | – | – | – | – | – | – | – | –
O=[N+]([O-])c1ccc(C2=NOC(c3ccc(N4CCC(Oc5ccc(OC(F)(F)F)cc5)CC4)nc3)C2)o1 (centres unmarked) [Compound 9b, 3-(5-Nitrofuran-2-yl)-5-(6-(4-(4-(trifluoromethoxy)phenoxy)piperidin-1-yl)pyridin-3-yl)-4,5-dihydroisoxazole] | – | – | – | – | 0.006 µg/mL | 200 µg/mL (≈ 386 µM) | 200 µg/mL (≈ 386 µM) | > 200 µg/mL | 200 µg/mL (≈ 386 µM) | 200 µg/mL (≈ 386 µM) | > 200 µg/mL | 50 µg/mL (≈ 96.4 µM) | 100 µg/mL (≈ 193 µM) | 100 µg/mL (≈ 193 µM) | > 200 µg/mL | >200 µg/mL | 1.6 µg/mL (≈ 3.09 µM) | 6.91 h | 0.001 | 4 µg/mL (≈ 7.72 µM) | fe (fraction excreted unchanged in urine) ([14]; iv, 10 mg/kg): 0.01 (0.00) %; Cmin,24 h ([14]; po, 100 mg/kg): 0.11 (0.11) mg/L; Toxicity by intravenous and oral dosing [15]: non-toxic; Vd ([16]; iv, 10 mg/kg): 1.53 L/kg; clearance ([16]; iv, 10 mg/kg): 7 mL/min/kg; half-life ([16]; iv, 10 mg/kg): 2.48 h; AUC(0-inf) ([16]; po, 100 mg/kg): 15100 ng·h/mL; Cmax ([16]; po, 100 mg/kg): 2310 ng/mL; bioavailability ([16]; po, 100 mg/kg): 8%; Selective Index (Cytox/MIC) [21]: 667
NCC[C@H](O)C(=O)N[C@@H]1C[C@H](N)[C@@H](O[C@H]2O[C@H](CN)[C@@H](O)[C@H](O)[C@H]2O)[C@H](O)[C@H]1O[C@H]1O[C@H](CO)[C@@H](O)[C@H](N)[C@H]1O [Amikacin] | – | – | – | – | – | – | – | – | – | – | – | – | – | – | – | – | – | – | – | – | MIC [22]: 3.13 to 6.25 µg/mL (≈ 5.34 to 10.7 µM); MIC [23]: 12.5 µg/mL (≈ 21.3 µM); MIC [24]: 6.25 to 12.5 µg/mL (≈ 10.7 to 21.3 µM); MIC [25]: 0.78 µg/mL (≈ 1.33 µM)
O=[N+]([O-])c1ccc(C2=NOC(c3ccc(N4CCC(Oc5ccc(F)cc5)CC4)cc3)C2)o1 (centres unmarked) [Compound 9d, 5-(4-(4-(4-Fluorophenoxy)piperidin-1-yl)phenyl)-3-(5-nitrofuran-2-yl)-4,5-dihydroisoxazole] | – | – | – | – | 0.012 µg/mL | 6.3 µg/mL (≈ 14 µM) | 100 µg/mL (≈ 222 µM) | 100 µg/mL (≈ 222 µM) | > 200 µg/mL | > 200 µg/mL | > 200 µg/mL | > 200 µg/mL | 50 µg/mL (≈ 111 µM) | 6.3 µg/mL (≈ 14 µM) | > 200 µg/mL | >200 µg/mL | 0.7 µg/mL (≈ 1.55 µM) | 1.43 h | 0.009 | 14.7 µg/mL (≈ 32.6 µM) | Selective Index (Cytox/MIC) [21]: 1225
[H]/N=C(/N)N[C@H]1[C@H](O)[C@@H](O)[C@H](O[C@@H]2O[C@@H](C)[C@](O)(C=O)[C@H]2O[C@@H]2O[C@@H](CO)[C@H](O)[C@@H](O)[C@@H]2NC)[C@@H](N/C(N)=N\[H])[C@@H]1O [Streptomycin] | 0.75 | 0.4 to 0.8 µg/mL | Indifference (key: Synergy: synergy (FICI ≤0.5); Indifference: indifference (FICI >0.5–4.0); Antagonism: antagonism (FICI >4.0)) | 1.6 µg/mL | – | – | – | – | – | – | – | – | – | – | – | – | – | – | – | – | Classification [26]: Cidal (key: Cidal: cidal (MBC/MIC ≤4); Static: static (MBC/MIC >4)); MBC [26]: 3.13–6.25; MBC/MIC [26]: ≤ 4
C[C@]1(COc2ccc(N3CCC(Oc4ccc(OC(F)(F)F)cc4)CC3)cc2)Cn2cc([N+](=O)[O-])nc2O1 [OPC-67683] | – | – | – | – | 0.01 µg/mL | – | – | – | – | – | – | – | – | – | – | – | – | 27.2 h | 0.002 | 107 µg/mL (≈ 200 µM) | MIC ([2]; M. tuberculosis, […], read-out: MIC): 0.019 µM; MBC [26]: >3; Classification ([26]; cidal or static from MBC versus MIC): Static (static (MBC/MIC >4))
